Marks after values point to notes of the source that are not given here.
Columns and labels:
[1] = tested on: mammary carcinoma murine model F3II; settings: F3II cells in culture; 100 ng/ml at 1 μg/ml; cited from earlier work
[2] = human, in vivo; cited from earlier work
[3] = tested on: breast carcinoma tumor cells F3II; experiment: Assay 2: extension of desmopressin action on experimental metastases (i.v. injection after tumor cell inoculation); type: in vivo, mice
Protocol: Assay 2: Extension of Desmopressin Action on Experimental Metastases Four groups of ten mice each were organized, and were inoculated with breast carcinoma tumor cells […], in accordance with the above description for Assay 1. Thereafter they were intravenously injected with desmopressin in 0.1 ml of physiological solution at different times (1.5 hours, 3 hours and 24 hours) after the inoculation with tumor cells. Quantification of pulmonary weights took place three weeks after tumoral inoculation. The results are depicted in FIG. 1, in which they are expressed as media±error standard. Similar results were obtained by quantifying the number of pulmonary metastatic nodules per animal.

[4] = mouse, in vivo; cited from earlier work
[5] = tested on: murine mammary cancer cell line F3II (sarcomatoid carcinoma); experiment: Assay 1: inhibition of pulmonary metastatic colonization, i.v. inoculated F3II cells in BALB/c mice; type: in vivo
Protocol: (§1) Assay 1: Inhibition of Metastatic Colonization by the Application of Desmopressin 12-16 weeks old syngenic mice from the BALB/c strain weighing 25 g on average were used. As tumor cells, murine mammary cancer cell lines […] (sarcomatoid carcinoma) and LM3 (poorly differentiated adenocarcinoma) were used and kept in monolayer culture in minimum essential medium (MEM, Gibco, Grand Island, N.Y.), supplemented with 5% heat-inactivated bovine fetal serum, 2 mM glutamine and gentamicine 80 μg/ml ([…]. Farías, […]. Bal de Kier Joffé, Characterization of […], a Mammary Sarcomatoid Carcinoma Cell Line Originated From a Mouse Adenocarcinoma, J. Surg. Oncol. 1996, 62:288-97). In order to collect them, cells were trypsinized following conventional procedures. Desmopressin available from Ferring Pharmaceuticals (Malmo, Sweden) was used. Desmopressin as provided by Sigma Chemical Co. (St. Louis, Miss.) was also employed. Mice were inoculated with tumor cells at a concentration of 2×10^5 cells/0.3 ml MEM/mouse in the side vein of their tails, in accordance with the following schedule and using eight animals in each group: Coinjection with Desmopressin: tumor cells were preincubated in serum-free MEM and i.v. coinjected with desmopressin, at a final dose of 1 μg ([…] cells) or 2 μg (LM3 cells) per kg of body weight. Preincubation with Desmopressin: tumor cell suspensions were preincubated in serum-free MEM for 30-60 minutes at 37° C., in the presence of equivalent concentrations of desmopressin (80-160 ng/ml MEM). Then, cells were pelleted, resuspended in serum-free MEM and i.v. injected in the absence of desmopressin. Control: animals inoculated with tumor cells, with no desmopressin treatment. Three weeks after inoculation, lung weights were quantified and the number of pulmonary metastatic nodules was determined under the dissection microscope.

[6] = tested on: F3II tumor cell suspensions; experiment: Assay 3A: cell survival of tumor cell suspensions, trypan blue; type: cell-based, murine; settings: 80 ng/ml and 160 ng/ml; 1-5 hours at 37° C. in serum-free MEM
Protocol: Assay 3: Cell Survival and Cytotoxicity In Vitro
A. F3II tumor cell suspensions were incubated at 37° C. in serum-free MEM: in the absence of desmopressin, in the presence of desmopressin, at concentrations of 80 ng/ml, in the presence of desmopressin, at concentrations of 160 ng/ml.
After 1-5 hours, cellular viability was assessed by the trypan blue technique. The results are shown in FIG. 2, where the absence of desmopressin (squares) and the presence of desmopressin are represented at concentrations of 80 ng/ml (triangles) and of 160 ng/ml (circles).

[7] = tested on: murine mammary cancer cell line LM3 (poorly differentiated adenocarcinoma); experiment: Assay 1: inhibition of pulmonary metastatic colonization, i.v. inoculated LM3 cells in BALB/c mice; type: in vivo
Protocol: as §1

[8] = in vivo, cited from earlier work

| SMILES | Breast cancer cell proliferation [1] | Urokinase secretion [1] | Thrombotic risk [2] | Extrapulmonary metastases ([3]; animals treated with desmopressin) | Inhibition of metastases (pulmonary weights, FIG. 1) ([3]; desmopressin i.v. 24 hours after inoculation of tumor cells, three weeks after inoculation) | Effects of high dose in mice [4] | Number of median pulmonary nodules (range) ([5]; F3II cells preincubated 30-60 minutes at 37° C. with desmopressin (80-160 ng/ml MEM), injected in absence of desmopressin, three weeks) | Decrease in number of metastatic nodules ([5]; F3II cells, coinjection with desmopressin vs control) | Number of median pulmonary nodules (range) ([5]; F3II cells, i.v. coinjection with desmopressin, final dose 1 μg per kg, three weeks after inoculation, p < 0.01 vs control) | Incidence of metastatic nodules after tumor cell preincubation in vitro ([5]; F3II cells, preincubation with equivalent concentrations of desmopressin) | Cell viability of tumor cell suspensions (trypan blue, FIG. 2) [6] | Number of median pulmonary nodules (range) ([7]; LM3 cells preincubated 30-60 minutes at 37° C. with desmopressin (80-160 ng/ml MEM), injected in absence of desmopressin, three weeks) | Decrease in number of metastatic nodules ([7]; LM3 cells, coinjection with desmopressin vs control) | Number of median pulmonary nodules (range) ([7]; LM3 cells, i.v. coinjection with desmopressin, final dose 2 μg per kg, three weeks after inoculation, p < 0.01 vs control) | Incidence of metastatic nodules after tumor cell preincubation in vitro ([7]; LM3 cells, preincubation with equivalent concentrations of desmopressin) | Half-life ([8]; iv, 20 ug) | Drug eliminated unmetabolized [8] |
| --- | --- | --- | --- | --- | --- | --- | --- | --- | --- | --- | --- | --- | --- | --- | --- | --- | --- |
| NC(=O)CC[C@@H]1NC(=O)[C@H](Cc2ccccc2)NC(=O)[C@H](Cc2ccc(O)cc2)NC(=O)[C@@H](N)CSSC[C@@H](C(=O)N2CCC[C@H]2C(=O)N[C@@H](CCCN=C(N)N)C(=O)NCC(N)=O)NC(=O)[C@H](CC(N)=O)NC1=O [vasopressin] | able to modulate | able to modulate |  |  |  |  |  |  |  |  |  |  |  |  |  |  |  |
| NC(=O)CC[C@@H]1NC(=O)[C@H](Cc2ccccc2)NC(=O)[C@H](Cc2ccc(O)cc2)NC(=O)CCSSC[C@@H](C(=O)N2CCC[C@H]2C(=O)N[C@H](CCCN=C(N)N)C(=O)NCC(N)=O)NC(=O)[C@H](CC(N)=O)NC1=O [desmopressin, 1-deamino-8-D-arginine vasopressin] | able to modulate | able to modulate | 0.0001% | No extrapulmonary metastases were found | inhibition of metastases was also effected | no relevant effects | 19 (3-66) | about 70% | 5 (0-12)* | did not lessen the incidence of metastatic nodules | did not reduce cell viability | 12 (8-37) | about 70% | 3 (1-18)* | did not lessen the incidence of metastatic nodules | ≤ 2.67 h | 60% |

— US6693082B2, “Method of inhibiting metastatic dissemination using desmopressin” (priority 1999, dated 2004)
